Laboratory results taken from patent US9034887B2, “Dihydroorotate dehydrogenase as antifungal drug target and quinazolinone-based inhibitors thereof” (F2G Limited, priority 2008, dated 2015).
Values after ≈ are worked out from the molar mass of the structure shown.

Key:
[1] = biological target: T1, Recombinant DHODH from human (Homo sapiens, UniProt Q02127); assay: DHODH inhibition screen (DCIP reduction, 600 nm), human enzyme; assay type: biochemical; conditions: Table 3, read-out: IC50 values for Compound Examples 1 to 15 identified from screens, Human
T1 construct: His-tag; NusA (Nus-tag) fusion of vector pET43.1 (own knowledge of the vector) (N); made in house; host or cells: E. coli BL21 DE3
T1 sequence (Q02127 31-395 limits assumed): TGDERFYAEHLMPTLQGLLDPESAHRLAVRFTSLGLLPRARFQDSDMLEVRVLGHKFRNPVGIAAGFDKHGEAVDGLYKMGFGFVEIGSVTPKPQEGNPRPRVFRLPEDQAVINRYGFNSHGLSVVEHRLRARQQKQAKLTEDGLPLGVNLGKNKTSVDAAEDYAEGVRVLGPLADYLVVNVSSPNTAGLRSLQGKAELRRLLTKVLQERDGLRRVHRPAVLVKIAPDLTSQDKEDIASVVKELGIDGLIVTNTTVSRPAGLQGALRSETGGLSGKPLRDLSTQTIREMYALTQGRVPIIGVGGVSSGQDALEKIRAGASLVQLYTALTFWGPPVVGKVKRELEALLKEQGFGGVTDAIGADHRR
Experimental: (§1) 1. The following buffer and stock solution were prepared:
(§2) Coenzyme Q2 (Sigma) was dissolved in DMSO to give a concentration of 10 mg/ml. […] The stock solution was made with 127.36 μl DHO, 127.36 μl DCIP and 318.4 μl Coenzyme Q2, made up to 80 ml with Buffer A. Final concentrations in assay wells were; DHO, 500 μM; Coenzyme Q, 50 μM; DCIP, 100 μM.
(§3) 2. […] Duplicate sets of plates were used such that one set received enzyme while a control set received no enzyme.
(§4) 3. […] Then 20 μl of DHODH solution was added to all the +enzyme plates and 20 μl of Buffer A was added to all the control −enzyme plates.
(§5) 4. 20 μl of DHO/Coenzyme Q2/DCIP solution was added to all the wells, after which plates were incubated at room temperature for […] and then read on a Tecan Safire spectrophotometer at 600 nm.
(§6) Recombinant DHODH from human or C. albicans was assayed in the same way. It is necessary to adjust the enzyme concentration and reaction time to take into account variations in activity of enzyme batches, thus the incubation time was 20 minutes for the C. albicans enzyme and 34 minutes for the human enzyme.

[2] = biological target: Recombinant A. fumigatus DHODH (Aspergillus fumigatus, UniProt Q4X169); assay: DHODH inhibition screen (DCIP reduction, 600 nm), A. fumigatus enzyme; assay type: biochemical
Sequence of Recombinant A. fumigatus DHODH (Q4X169 entry or part of it): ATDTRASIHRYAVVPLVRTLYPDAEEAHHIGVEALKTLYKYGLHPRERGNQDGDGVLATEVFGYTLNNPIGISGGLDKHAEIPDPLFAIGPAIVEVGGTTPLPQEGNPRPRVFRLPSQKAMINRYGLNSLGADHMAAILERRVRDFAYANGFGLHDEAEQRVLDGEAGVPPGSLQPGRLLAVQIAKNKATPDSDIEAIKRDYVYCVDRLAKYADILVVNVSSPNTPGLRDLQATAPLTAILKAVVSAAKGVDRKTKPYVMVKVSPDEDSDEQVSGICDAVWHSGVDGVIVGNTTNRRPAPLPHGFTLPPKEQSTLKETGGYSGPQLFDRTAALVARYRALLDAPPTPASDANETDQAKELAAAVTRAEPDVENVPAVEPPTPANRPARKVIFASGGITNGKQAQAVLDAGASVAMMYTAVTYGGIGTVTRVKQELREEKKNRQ
Experimental: as §1
Buffer A: 62.5 mM TrisHCl (pH8.0), 150 mM NaCl, 10% v/v glycerol
DHO/Coenzyme Q2/DCIP solution: 19.848 mg dihydroorotate (DHO; Sigma) was dissolved in 160 μl DMSO. Coenzyme Q2 (Sigma) was dissolved in DMSO to give a concentration of 10 mg/ml. 7.236 mg 2,6-dichloroindophenol (DCIP; Sigma) was dissolved in 160 μl DMSO. The stock solution was made with 127.36 μl DHO, 127.36 μl DCIP and 318.4 μl Coenzyme Q2, made up to 80 ml with Buffer A. Final concentrations in assay wells were; DHO, 500 μM; Coenzyme Q, 50 μM; DCIP, 100 μM.
2. Compounds were aliquotted into 384-well microtitre plates at a range of dilutions to give final concentrations in the assay of […]. Duplicate sets of plates were used such that one set received enzyme while a control set received no enzyme. Since compounds are frequently dissolved in DMSO or a DMSO/water mixture, assays were set up to give a final concentration of 1% (v/v) DMSO in wells.
3. Recombinant A. fumigatus DHODH was suspended in Buffer A to give a concentration of 1435.8 ng protein in 20 μl. Then 20 μl of DHODH solution was added to all the +enzyme plates and 20 μl of Buffer A was added to all the control −enzyme plates.
as §5
as §6, with “enzyme. Compounds are screened against a fungal and human enzyme to identify compounds which are selective for the fungal enzyme.” for “enzyme.”

[3] = test system: Aspergillus flavus; assay: MIC in YAG medium, A. flavus; assay type: cell-based; conditions: 24 hrs at 35° C., >70% growth inhibition, read-out: MIC grade, A. flavus
Experimental: (§7) Between 1 and 5 mgs of compound were accurately weighed out into a sterile Eppendorf tube. The compound was dissolved in DMSO to give a solution containing 5 mg/mL. Tubes were stored at −20° C. until required.
(§8) On the day of testing thawed solutions were vortex mixed to ensure homogeneity. 30 μL of solution was removed and added to 570 μL of sterile water in a separate sterile Eppendorf. The thoroughly mixed solution was used to prepare a series of doubling dilutions in water, in a deep well plate. Thirteen replicate plates were prepared using a Minitrak by aspirating 20 μL from each well into eleven clear polystyrene 96 well plates.
(§9) Spores of Aspergillus spp. (Aspergillus fumigatus [two strains], Aspergillus terreus [two strains], Aspergillus niger and Aspergillus flavus) were harvested from cultures grown on Sabarauds agar for 5 days, and resuspended in PBS/Tween 80 to approx 1×10^7 cfu/mL. Each organism suspension was diluted in YAG medium (1% glucose, 1% ammonium chloride and 0.5% yeast extract) to 0.5-2×10^4 cfu/mL. 80 μL of an organism suspension was added to each well of the plate containing drug dilutions.
(§10) All plates were incubated for 24 hrs at 35° C. Growth was assessed by monitoring the optical density at 485 nm for each well. The MIC of a compound is the lowest drug concentration that inhibits growth of an organism by >70% compared with a drug free control. MICs are recorded as mg/L. In cases where the MIC of an organism is […] the MIC is repeated using a concentration range of 0.5-0.0005 mg/L.

[4] = test system: Aspergillus fumigatus; assay: MIC in YAG medium, A. fumigatus; assay type: cell-based; conditions: 24 hrs at 35° C., >70% growth inhibition, read-out: MIC grade, A. fumigatus
Experimental: as §7, §8, §9, §10

[5] = test system: A. fumigatus 210; assay: MIC in YAG medium, A. fumigatus 210; assay type: cell-based; conditions: Aspergillus fumigatus, 24 hrs at 35° C., >70% growth inhibition, read-out: MIC grade, A. fumigatus 210
Experimental: as §7, §8, §9, §10

[6] = test system: Aspergillus niger; assay: MIC in YAG medium, A. niger; assay type: cell-based; conditions: 24 hrs at 35° C., >70% growth inhibition, read-out: MIC grade, A. niger
Experimental: as §7, §8, §9, §10

[7] = test system: Aspergillus terreus; assay: MIC in YAG medium, A. terreus; assay type: cell-based; conditions: 24 hrs at 35° C., >70% growth inhibition, read-out: MIC grade, A. terreus
Experimental: as §7, §8, §9, §10

[8] = test system: A. terreus 49; assay: MIC in YAG medium, A. terreus 49; assay type: cell-based; conditions: Aspergillus terreus, 24 hrs at 35° C., >70% growth inhibition, read-out: MIC grade, A. terreus 49
Experimental: as §7, §8, §9, §10

[9] = test system: Aspergillus flavus; assay: MIC in RPMI medium, A. flavus; assay type: cell-based; conditions: 24-48 hrs at 35° C., >80% growth inhibition, read-out: MIC grade, A. flavus
Experimental: as §7, §8
(§11) Assays were also performed in RPMI medium. To perform MIC tests in this medium, dilutions of compounds are prepared in microtitre plates as described above. Fungal strains to be tested are grown and harvested in an identical manner to that described above, and each organism suspension was diluted in RPMI medium, containing 2% glucose and 0.135 M MOPS buffer (pH 7.0) to 0.5-2×10^4 cfu/mL, rather than in YAG medium. 80 μL of an organism suspension was added to each well of the plate containing drug dilutions.
(§12) All plates were incubated for 24-48 hrs at 35° C. Growth was assessed by monitoring the optical density at 485 nm for each well. […] The following organisms were tested: Aspergillus flavus, Aspergillus fumigatus AF293 and AF210, Aspergillus niger and Aspergillus terreus AT4 and AT49.

[10] = test system: Aspergillus fumigatus AF293; assay: MIC in RPMI medium, A. fumigatus; assay type: cell-based; conditions: 24-48 hrs at 35° C., >80% growth inhibition, read-out: MIC grade, A. fumigatus
Experimental: as §7, §8, §11, §12

[11] = test system: Aspergillus fumigatus AF210; assay: MIC in RPMI medium, A. fumigatus 210; assay type: cell-based; conditions: 24-48 hrs at 35° C., >80% growth inhibition, read-out: MIC grade, A. fumigatus 210
Experimental: as §7, §8, §11, §12

[12] = test system: Aspergillus niger; assay: MIC in RPMI medium, A. niger; assay type: cell-based; conditions: 24-48 hrs at 35° C., >80% growth inhibition, read-out: MIC grade, A. niger
Experimental: as §7, §8, §11, §12

[13] = test system: Aspergillus terreus AT4; assay: MIC in RPMI medium, A. terreus; assay type: cell-based; conditions: 24-48 hrs at 35° C., >80% growth inhibition, read-out: MIC grade, A. terreus
Experimental: as §7, §8, §11, §12

[14] = test system: Aspergillus terreus AT49; assay: MIC in RPMI medium, A. terreus 49; assay type: cell-based; conditions: 24-48 hrs at 35° C., >80% growth inhibition, read-out: MIC grade, A. terreus 49
Experimental: as §7, §8, §11, §12

[15] = biological target: T2, Recombinant DHODH from C. albicans (Candida albicans, UniProt Q874I4); assay: DHODH inhibition screen (DCIP reduction, 600 nm), C. albicans enzyme; assay type: biochemical
T2 construct: His-tag; NusA (Nus-tag) fusion of vector pET43.1 (own knowledge of the vector) (N); made in house; host or cells: E. coli BL21 DE3
T2 sequence (Q874I4 57-444): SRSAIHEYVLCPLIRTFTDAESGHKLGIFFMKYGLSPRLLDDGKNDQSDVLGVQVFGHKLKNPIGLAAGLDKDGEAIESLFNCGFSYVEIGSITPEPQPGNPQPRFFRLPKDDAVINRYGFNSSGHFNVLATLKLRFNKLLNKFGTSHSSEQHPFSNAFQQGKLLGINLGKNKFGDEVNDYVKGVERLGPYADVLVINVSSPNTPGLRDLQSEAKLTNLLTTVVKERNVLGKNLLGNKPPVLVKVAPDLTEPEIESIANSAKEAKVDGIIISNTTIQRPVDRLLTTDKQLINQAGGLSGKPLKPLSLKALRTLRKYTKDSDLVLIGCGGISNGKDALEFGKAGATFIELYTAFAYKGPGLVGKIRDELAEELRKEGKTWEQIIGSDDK
Experimental: as §1, §2, §3, §4, §5, §6

SMILES | IC50 [1] [µM] | IC50 [2] [µM] | MIC [3] [mg/L] | MIC [4] [mg/L] | MIC [5] [mg/L] | MIC [6] [mg/L] | MIC [7] [mg/L] | MIC [8] [mg/L] | MIC [9] [mg/L] | MIC [10] [mg/L] | MIC [11] [mg/L] | MIC [12] [mg/L] | MIC [13] [mg/L] | MIC [14] [mg/L] | IC50 [15] [µM]
COc1ccccc1-n1c(SC(C)C)nc2ccc(N(C)C)cc2c1=O [Compound Example 6, 6-Dimethylamino-2-isopropylsulfanyl-3-(2-methoxy-phenyl)-3H-quinazolin-4-one] | 1.09 | 10.1 | > 10 | 1 to 10 (≈ 2.71 to 27.1 µM) | 1 to 10 (≈ 2.71 to 27.1 µM) | < 1 | 1 to 10 (≈ 2.71 to 27.1 µM) | 1 to 10 (≈ 2.71 to 27.1 µM) | > 10 | > 10 | 1 to 10 (≈ 2.71 to 27.1 µM) | < 1 | > 10 | > 10 | –
COc1ccccc1-n1c(SC(C)C)nc2ccccc2c1=O [Compound Example 7, 2-Isopropylsulfanyl-3-(2-methoxy-phenyl)-3H-quinazolin-4-one] | 50.1 | 11.6 | > 10 | < 1 | < 1 | < 1 | < 1 | 1 to 10 (≈ 3.06 to 30.6 µM) | > 10 | 1 to 10 (≈ 3.06 to 30.6 µM) | 1 to 10 (≈ 3.06 to 30.6 µM) | < 1 | 1 to 10 (≈ 3.06 to 30.6 µM) | 1 to 10 (≈ 3.06 to 30.6 µM) | –
CCSc1nc2ccccc2c(=O)n1-c1ccccc1C(C)C [Compound Example 15, 2-Ethylsulfanyl-3-(2-isopropyl-phenyl)-3H-quinazolin-4-one] | 23.2 | 46.1 | > 10 | < 1 | < 1 | < 1 | 1 to 10 (≈ 3.08 to 30.8 µM) | < 1 | > 10 | < 1 | 1 to 10 (≈ 3.08 to 30.8 µM) | < 1 | > 10 | > 10 | –
Cc1c(-c2ccc(-c3ccccc3F)cc2)nc2ccc(F)cc2c1C(=O)O [Brequinar, brequinar] | – | – | – | – | – | – | – | – | – | – | – | – | – | – | 143
CCc1ccccc1-n1c(SC(C)C)nc2ccccc2c1=O [Compound Example 9, 3-(2-Ethyl-phenyl)-2-isopropylsulfanyl-3H-quinazolin-4-one] | 123 | 17.7 | > 10 | < 1 | < 1 | < 1 | 1 to 10 (≈ 3.08 to 30.8 µM) | < 1 | > 10 | < 1 | > 10 | < 1 | > 10 | > 10 | –
CCSc1nc2cccc(C)c2c(=O)n1-c1ccccc1OC [Compound Example 14, 2-Ethylsulfanyl-3-(2-methoxy-phenyl)-5-methyl-3H-quinazolin-4-one] | 32.1 | 43.7 | 1 to 10 (≈ 3.06 to 30.6 µM) | < 1 | < 1 | < 1 | < 1 | < 1 | > 10 | 1 to 10 (≈ 3.06 to 30.6 µM) | 1 to 10 (≈ 3.06 to 30.6 µM) | < 1 | > 10 | 1 to 10 (≈ 3.06 to 30.6 µM) | –
CC(C)Sc1nc2ccccc2c(=O)n1-c1ccccc1C(C)C [Compound Example 8, 3-(2-Isopropyl-phenyl)-2-isopropylsulfanyl-3H-quinazolin-4-one] | 131 | 12.2 | > 10 | < 1 | < 1 | < 1 | < 1 | < 1 | > 10 | < 1 | 1 to 10 (≈ 2.95 to 29.5 µM) | < 1 | > 10 | 1 to 10 (≈ 2.95 to 29.5 µM) | –
